Assay results as given in the supplement of paper PMC8882468.

Each compound was assayed on HCI-012 (organoid from a breast cancer xenograft) (assay: CTG-3D luminescence at 96 h relative to day-0 seeding control (ratio to day 0); higher = more growth / less cytotoxicity; PDxO 3D drug screen, 96 h, CTG-3D normalised to day-0 seeding control.). Conditions: 12.5 pM; days in culture: 143.

Compound | CTG-3D luminescence at 96 h
COc1cc2c(Oc3ccc4[nH]c(C)cc4c3F)ncnc2cc1OCCCN1CCCC1 [cediranib] | 2.15
CC(C)n1nc(-c2ccc3oc(N)nc3c2)c2c(N)ncnc21 [sapanisertib] | 1.67
Cc1cc(Nc2ncnc3ccc(NC4=NC(C)(C)CO4)cc23)ccc1Oc1ccn2ncnc2c1 [tucatinib] | 2.24
C[C@H](NC(=O)CCC(F)(F)F)C(=O)N[C@@H]1C(=O)N(CCO)c2ncccc2-c2ccccc21 [crenigacestat] | 1.9
C[C@]12CC[C@@H]3c4ccc(O)cc4C[C@@H](CCCCCCCCC[S+]([O-])CCCC(F)(F)C(F)(F)F)[C@H]3[C@@H]1CC[C@@H]2O (some centres not stated) [fulvestrant] | 2.28
O=C(c1ccc(F)c(F)c1Nc1ccc(I)cc1F)N1CC(O)([C@@H]2CCCCN2)C1 [cobimetinib] | 1.73
O=C(/C=C/c1cccnc1)NCCCCC1CCN(C(=O)c2ccccc2)CC1 [FK866] | 1.77
CS(=O)(=O)c1ccc(C(=O)Nc2ccc(Cl)c(-c3ccccn3)c2)c(Cl)c1 [vismodegib] | 2.03
C=CCn1c(=O)c2cnc(Nc3ccc(N4CCN(C)CC4)cc3)nc2n1-c1cccc(C(C)(C)O)n1 [adavosertib] | 1.94

Same assay, conditions: 12.5 pM; days in culture: 162

Compound | CTG-3D luminescence at 96 h
COc1cc2c(Oc3ccc4[nH]c(C)cc4c3F)ncnc2cc1OCCCN1CCCC1 [cediranib] | 2.22
CC(C)n1nc(-c2ccc3oc(N)nc3c2)c2c(N)ncnc21 [sapanisertib] | 2.13
Cc1cc(Nc2ncnc3ccc(NC4=NC(C)(C)CO4)cc23)ccc1Oc1ccn2ncnc2c1 [tucatinib] | 2.64
C[C@H](NC(=O)CCC(F)(F)F)C(=O)N[C@@H]1C(=O)N(CCO)c2ncccc2-c2ccccc21 [crenigacestat] | 2.11
C[C@]12CC[C@@H]3c4ccc(O)cc4C[C@@H](CCCCCCCCC[S+]([O-])CCCC(F)(F)C(F)(F)F)[C@H]3[C@@H]1CC[C@@H]2O (some centres not stated) [fulvestrant] | 2.65
O=C(c1ccc(F)c(F)c1Nc1ccc(I)cc1F)N1CC(O)([C@@H]2CCCCN2)C1 [cobimetinib] | 2.44
O=C(/C=C/c1cccnc1)NCCCCC1CCN(C(=O)c2ccccc2)CC1 [FK866] | 2.18
CS(=O)(=O)c1ccc(C(=O)Nc2ccc(Cl)c(-c3ccccn3)c2)c(Cl)c1 [vismodegib] | 2.64
C=CCn1c(=O)c2cnc(Nc3ccc(N4CCN(C)CC4)cc3)nc2n1-c1cccc(C(C)(C)O)n1 [adavosertib] | 2.21

Same assay, conditions: 12.5 pM; days in culture: 201

Compound | CTG-3D luminescence at 96 h
COc1cc2c(Oc3ccc4[nH]c(C)cc4c3F)ncnc2cc1OCCCN1CCCC1 [cediranib] | 2.36
CC(C)n1nc(-c2ccc3oc(N)nc3c2)c2c(N)ncnc21 [sapanisertib] | 2.95
Cc1cc(Nc2ncnc3ccc(NC4=NC(C)(C)CO4)cc23)ccc1Oc1ccn2ncnc2c1 [tucatinib] | 2.71
C[C@H](NC(=O)CCC(F)(F)F)C(=O)N[C@@H]1C(=O)N(CCO)c2ncccc2-c2ccccc21 [crenigacestat] | 2.55
C[C@]12CC[C@@H]3c4ccc(O)cc4C[C@@H](CCCCCCCCC[S+]([O-])CCCC(F)(F)C(F)(F)F)[C@H]3[C@@H]1CC[C@@H]2O (some centres not stated) [fulvestrant] | 2.77
O=C(c1ccc(F)c(F)c1Nc1ccc(I)cc1F)N1CC(O)([C@@H]2CCCCN2)C1 [cobimetinib] | 2.69
O=C(/C=C/c1cccnc1)NCCCCC1CCN(C(=O)c2ccccc2)CC1 [FK866] | 2.67
CS(=O)(=O)c1ccc(C(=O)Nc2ccc(Cl)c(-c3ccccn3)c2)c(Cl)c1 [vismodegib] | 2.82
C=CCn1c(=O)c2cnc(Nc3ccc(N4CCN(C)CC4)cc3)nc2n1-c1cccc(C(C)(C)O)n1 [adavosertib] | 2.67

Same assay, conditions: 0.00025 µM; days in culture: 143

Compound | CTG-3D luminescence at 96 h
COc1cc2c(Oc3ccc4[nH]c(C)cc4c3F)ncnc2cc1OCCCN1CCCC1 [cediranib] | 1.81
CC(C)n1nc(-c2ccc3oc(N)nc3c2)c2c(N)ncnc21 [sapanisertib] | 2.13
Cc1cc(Nc2ncnc3ccc(NC4=NC(C)(C)CO4)cc23)ccc1Oc1ccn2ncnc2c1 [tucatinib] | 2.35
C[C@H](NC(=O)CCC(F)(F)F)C(=O)N[C@@H]1C(=O)N(CCO)c2ncccc2-c2ccccc21 [crenigacestat] | 1.85
C[C@]12CC[C@@H]3c4ccc(O)cc4C[C@@H](CCCCCCCCC[S+]([O-])CCCC(F)(F)C(F)(F)F)[C@H]3[C@@H]1CC[C@@H]2O (some centres not stated) [fulvestrant] | 2.33
O=C(c1ccc(F)c(F)c1Nc1ccc(I)cc1F)N1CC(O)([C@@H]2CCCCN2)C1 [cobimetinib] | 1.86
O=C(/C=C/c1cccnc1)NCCCCC1CCN(C(=O)c2ccccc2)CC1 [FK866] | 2.17
CS(=O)(=O)c1ccc(C(=O)Nc2ccc(Cl)c(-c3ccccn3)c2)c(Cl)c1 [vismodegib] | 2.38
C=CCn1c(=O)c2cnc(Nc3ccc(N4CCN(C)CC4)cc3)nc2n1-c1cccc(C(C)(C)O)n1 [adavosertib] | 1.86

Same assay, conditions: 0.00025 µM; days in culture: 162

Compound | CTG-3D luminescence at 96 h
COc1cc2c(Oc3ccc4[nH]c(C)cc4c3F)ncnc2cc1OCCCN1CCCC1 [cediranib] | 1.99
CC(C)n1nc(-c2ccc3oc(N)nc3c2)c2c(N)ncnc21 [sapanisertib] | 2.28
Cc1cc(Nc2ncnc3ccc(NC4=NC(C)(C)CO4)cc23)ccc1Oc1ccn2ncnc2c1 [tucatinib] | 2.24
C[C@H](NC(=O)CCC(F)(F)F)C(=O)N[C@@H]1C(=O)N(CCO)c2ncccc2-c2ccccc21 [crenigacestat] | 2.3
C[C@]12CC[C@@H]3c4ccc(O)cc4C[C@@H](CCCCCCCCC[S+]([O-])CCCC(F)(F)C(F)(F)F)[C@H]3[C@@H]1CC[C@@H]2O (some centres not stated) [fulvestrant] | 2.28
O=C(c1ccc(F)c(F)c1Nc1ccc(I)cc1F)N1CC(O)([C@@H]2CCCCN2)C1 [cobimetinib] | 2.1
O=C(/C=C/c1cccnc1)NCCCCC1CCN(C(=O)c2ccccc2)CC1 [FK866] | 2.1
CS(=O)(=O)c1ccc(C(=O)Nc2ccc(Cl)c(-c3ccccn3)c2)c(Cl)c1 [vismodegib] | 2.72
C=CCn1c(=O)c2cnc(Nc3ccc(N4CCN(C)CC4)cc3)nc2n1-c1cccc(C(C)(C)O)n1 [adavosertib] | 2.27

Same assay, conditions: 0.00025 µM; days in culture: 201

Compound | CTG-3D luminescence at 96 h
COc1cc2c(Oc3ccc4[nH]c(C)cc4c3F)ncnc2cc1OCCCN1CCCC1 [cediranib] | 2.05
CC(C)n1nc(-c2ccc3oc(N)nc3c2)c2c(N)ncnc21 [sapanisertib] | 2.02
Cc1cc(Nc2ncnc3ccc(NC4=NC(C)(C)CO4)cc23)ccc1Oc1ccn2ncnc2c1 [tucatinib] | 2.13
C[C@H](NC(=O)CCC(F)(F)F)C(=O)N[C@@H]1C(=O)N(CCO)c2ncccc2-c2ccccc21 [crenigacestat] | 1.94
C[C@]12CC[C@@H]3c4ccc(O)cc4C[C@@H](CCCCCCCCC[S+]([O-])CCCC(F)(F)C(F)(F)F)[C@H]3[C@@H]1CC[C@@H]2O (some centres not stated) [fulvestrant] | 2.3
O=C(c1ccc(F)c(F)c1Nc1ccc(I)cc1F)N1CC(O)([C@@H]2CCCCN2)C1 [cobimetinib] | 1.53
O=C(/C=C/c1cccnc1)NCCCCC1CCN(C(=O)c2ccccc2)CC1 [FK866] | 0.11
CS(=O)(=O)c1ccc(C(=O)Nc2ccc(Cl)c(-c3ccccn3)c2)c(Cl)c1 [vismodegib] | 2.26
C=CCn1c(=O)c2cnc(Nc3ccc(N4CCN(C)CC4)cc3)nc2n1-c1cccc(C(C)(C)O)n1 [adavosertib] | 2.07

Same assay, conditions: 0.005 µM; days in culture: 143

Compound | CTG-3D luminescence at 96 h
COc1cc2c(Oc3ccc4[nH]c(C)cc4c3F)ncnc2cc1OCCCN1CCCC1 [cediranib] | 1.84
CC(C)n1nc(-c2ccc3oc(N)nc3c2)c2c(N)ncnc21 [sapanisertib] | 1.85
Cc1cc(Nc2ncnc3ccc(NC4=NC(C)(C)CO4)cc23)ccc1Oc1ccn2ncnc2c1 [tucatinib] | 2.17
C[C@H](NC(=O)CCC(F)(F)F)C(=O)N[C@@H]1C(=O)N(CCO)c2ncccc2-c2ccccc21 [crenigacestat] | 1.63
C[C@]12CC[C@@H]3c4ccc(O)cc4C[C@@H](CCCCCCCCC[S+]([O-])CCCC(F)(F)C(F)(F)F)[C@H]3[C@@H]1CC[C@@H]2O (some centres not stated) [fulvestrant] | 2.23
O=C(c1ccc(F)c(F)c1Nc1ccc(I)cc1F)N1CC(O)([C@@H]2CCCCN2)C1 [cobimetinib] | 1.88
O=C(/C=C/c1cccnc1)NCCCCC1CCN(C(=O)c2ccccc2)CC1 [FK866] | 0.328
CS(=O)(=O)c1ccc(C(=O)Nc2ccc(Cl)c(-c3ccccn3)c2)c(Cl)c1 [vismodegib] | 2.4
C=CCn1c(=O)c2cnc(Nc3ccc(N4CCN(C)CC4)cc3)nc2n1-c1cccc(C(C)(C)O)n1 [adavosertib] | 2.1

Same assay, conditions: 0.005 µM; days in culture: 162

Compound | CTG-3D luminescence at 96 h
COc1cc2c(Oc3ccc4[nH]c(C)cc4c3F)ncnc2cc1OCCCN1CCCC1 [cediranib] | 1.54
CC(C)n1nc(-c2ccc3oc(N)nc3c2)c2c(N)ncnc21 [sapanisertib] | 1.6
Cc1cc(Nc2ncnc3ccc(NC4=NC(C)(C)CO4)cc23)ccc1Oc1ccn2ncnc2c1 [tucatinib] | 1.87
C[C@H](NC(=O)CCC(F)(F)F)C(=O)N[C@@H]1C(=O)N(CCO)c2ncccc2-c2ccccc21 [crenigacestat] | 1.74
C[C@]12CC[C@@H]3c4ccc(O)cc4C[C@@H](CCCCCCCCC[S+]([O-])CCCC(F)(F)C(F)(F)F)[C@H]3[C@@H]1CC[C@@H]2O (some centres not stated) [fulvestrant] | 1.8
O=C(c1ccc(F)c(F)c1Nc1ccc(I)cc1F)N1CC(O)([C@@H]2CCCCN2)C1 [cobimetinib] | 1.91
O=C(/C=C/c1cccnc1)NCCCCC1CCN(C(=O)c2ccccc2)CC1 [FK866] | 0.129
CS(=O)(=O)c1ccc(C(=O)Nc2ccc(Cl)c(-c3ccccn3)c2)c(Cl)c1 [vismodegib] | 2.08
C=CCn1c(=O)c2cnc(Nc3ccc(N4CCN(C)CC4)cc3)nc2n1-c1cccc(C(C)(C)O)n1 [adavosertib] | 2.02
